#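 Method: 48-hour compound exposure of cells in 96-well plates, five concentrations, linear interpolation of endpoints. The concentration for 50% growth inhibition is given as GI50. TGI is the concentration that stops growth completely.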
# Experiments:
# Assay in all cases: NCI anticancer screen, dose series, 48 h
# [1] = system: NCI/ADR-RES ovarian
# [2] = system: ACHN renal
# [3] = system: KM12 colon
# [4] = system: 786-0 renal
# [5] = system: HOP-92 NSCLC
# [6] = system: DU-145 prostate
# [7] = system: OVCAR-4 ovarian
# [8] = system: A498 renal
# [9] = system: UO-31 renal
# [10] = system: LOX IMVI melanoma
# [11] = system: SR leukemia
# [12] = system: A549 NSCLC
# [13] = system: SK-OV-3 ovarian
# [14] = system: SW-620 colon
# [15] = system: SK-MEL-5 melanoma
# [16] = system: CCRF-CEM leukemia
# [17] = system: BT-549 breast
# [18] = system: OVCAR-5 ovarian
# [19] = system: NCI-H23 lung
# [20] = system: HS 578T breast
# [21] = system: IGROV1 ovarian
# [22] = system: MCF7 breast
# [23] = system: U251 CNS
# [24] = system: HCC-2998 colon
# [25] = system: SF-268 CNS
# [26] = system: MDA-MB-231 breast
# [27] = system: SNB-19 CNS
# [28] = system: T-47D breast
# [29] = system: MDA-MB-435
# [30] = system: M14 melanoma
# [31] = system: TK-10 renal
# [32] = system: OVCAR-3 ovarian
# [33] = system: NCI-H460 lung
# [34] = system: HT29 colon
# [35] = system: EKVX NSCLC
# [36] = system: RPMI-8226 leukemia
# [37] = system: SN12C renal
# [38] = system: COLO 205 colon
# [39] = system: SF-295 CNS
# [40] = system: CAKI-1 renal
# [41] = system: HCT-116 colon
# [42] = system: SF-539 CNS
# [43] = system: SK-MEL-28 melanoma
# [44] = system: OVCAR-8 ovarian
# [45] = system: NCI-H226 lung
# [46] = system: PC-3 prostate
# [47] = system: K-562 leukemia
# [48] = system: HOP-62 NSCLC
# [49] = system: UACC-257 melanoma
# [50] = system: NCI-H522 lung
# [51] = system: HCT-15 colon
# [52] = system: UACC-62 melanoma
# [53] = system: RXF 393 renal
# [54] = system: MOLT-4 leukemia
# [55] = system: SK-MEL-2 melanoma
# [56] = system: SNB-75 CNS
# [57] = system: MALME-3M melanoma
# [58] = system: HL-60(TB) leukemia
compound,measurement,setting,value
N=c1c2c(=N)n3c(nc2nc2n1-c1ccccc1Sc1ccccc1-2)sc1cc(Cl)ccc13,GI50,[1],1.84 µM
same,TGI,[1],44.6 µM
same,GI50,[2],2.18 µM
same,TGI,[2],> 100 µM
same,GI50,[3],2.34 µM
same,TGI,[3],12.6 µM
same,GI50,[4],3.64 µM
same,TGI,[4],> 100 µM
same,GI50,[5],0.517 µM
same,TGI,[5],4.15 µM
same,GI50,[6],3.55 µM
same,TGI,[6],> 100 µM
same,GI50,[7],2.78 µM
same,TGI,[7],> 100 µM
same,GI50,[8],1.79 µM
same,TGI,[8],6.33 µM
same,GI50,[9],1.29 µM
same,TGI,[9],7.68 µM
same,GI50,[10],2.7 µM
same,TGI,[10],14.6 µM
same,GI50,[11],2.77 µM
same,TGI,[11],> 100 µM
same,GI50,[12],2.25 µM
same,TGI,[12],> 100 µM
same,GI50,[13],4.42 µM
same,TGI,[13],37 µM
same,GI50,[14],3.14 µM
same,TGI,[14],71.1 µM
same,GI50,[15],1.12 µM
same,TGI,[15],4 µM
same,GI50,[16],2.59 µM
same,TGI,[16],> 100 µM
same,GI50,[17],3.97 µM
same,TGI,[17],> 100 µM
same,GI50,[18],7.55 µM
same,TGI,[18],38.9 µM
same,GI50,[19],1.15 µM
same,TGI,[19],7.02 µM
same,GI50,[20],1.78 µM
same,TGI,[20],7.01 µM
same,GI50,[21],3.51 µM
same,TGI,[21],35.4 µM
same,GI50,[22],2.21 µM
same,TGI,[22],> 100 µM
same,GI50,[23],1.84 µM
same,TGI,[23],6.79 µM
same,GI50,[24],1.32 µM
same,TGI,[24],4.97 µM
same,GI50,[25],3.42 µM
same,TGI,[25],> 100 µM
same,GI50,[26],2.8 µM
same,TGI,[26],14 µM
same,GI50,[27],2.88 µM
same,TGI,[27],68.7 µM
same,GI50,[28],2.41 µM
same,TGI,[28],9.5 µM
same,GI50,[29],3.11 µM
same,TGI,[29],> 100 µM
same,GI50,[30],4.11 µM
same,TGI,[30],> 100 µM
same,GI50,[31],3.64 µM
same,TGI,[31],> 100 µM
same,GI50,[32],1.12 µM
same,TGI,[32],4.24 µM
same,GI50,[33],1.77 µM
same,TGI,[33],10.3 µM
same,GI50,[34],3.43 µM
same,TGI,[34],> 100 µM
same,GI50,[35],1.24 µM
same,TGI,[35],7.46 µM
same,GI50,[36],0.988 µM
same,TGI,[36],> 100 µM
same,GI50,[37],2.33 µM
same,TGI,[37],32.6 µM
same,GI50,[38],3.72 µM
same,TGI,[38],32.5 µM
same,GI50,[39],1.82 µM
same,TGI,[39],9.52 µM
same,GI50,[40],1.94 µM
same,TGI,[40],> 100 µM
same,GI50,[41],1.86 µM
same,TGI,[41],> 100 µM
same,GI50,[42],5.07 µM
same,TGI,[42],30.6 µM
same,GI50,[43],2.65 µM
same,TGI,[43],13.6 µM
same,GI50,[44],3.1 µM
same,TGI,[44],67.9 µM
same,GI50,[45],1.73 µM
same,TGI,[45],16.8 µM
same,GI50,[46],2.64 µM
same,TGI,[46],> 100 µM
same,GI50,[47],1.62 µM
same,TGI,[47],> 100 µM
same,GI50,[48],5.87 µM
same,TGI,[48],24.1 µM
same,GI50,[49],2.59 µM
same,TGI,[49],54.8 µM
same,GI50,[50],1.2 µM
same,TGI,[50],6.99 µM
same,GI50,[51],2.14 µM
same,TGI,[51],> 100 µM
same,GI50,[52],1.16 µM
same,TGI,[52],9.44 µM
same,GI50,[53],2.46 µM
same,TGI,[53],9.52 µM
same,GI50,[54],2.33 µM
same,TGI,[54],> 100 µM
same,GI50,[55],1.44 µM
same,TGI,[55],13.9 µM
same,GI50,[56],1.83 µM
same,TGI,[56],65.4 µM
COc1ccc(N=N/C(C(=O)C(F)(F)F)=C(\O)c2ccc(Cl)cc2)cc1,GI50,[1],3.56 µM
same,TGI,[1],23.2 µM
same,GI50,[2],6.53 µM
same,TGI,[2],> 100 µM
same,GI50,[3],2.61 µM
same,TGI,[3],38.7 µM
same,GI50,[4],6.63 µM
same,TGI,[4],83.6 µM
same,GI50,[6],14.6 µM
same,TGI,[6],70.8 µM
same,GI50,[7],21.6 µM
same,TGI,[7],> 100 µM
same,GI50,[8],10.9 µM
same,TGI,[8],23.8 µM
same,GI50,[9],8.18 µM
same,TGI,[9],47.6 µM
same,GI50,[10],3.29 µM
same,TGI,[10],21.5 µM
same,GI50,[11],4.26 µM
same,TGI,[11],24.7 µM
same,GI50,[12],3.83 µM
same,TGI,[12],16.8 µM
same,GI50,[13],14.4 µM
same,TGI,[13],35.3 µM
same,GI50,[14],4.36 µM
same,TGI,[14],> 100 µM
same,GI50,[15],3.63 µM
same,TGI,[15],14.3 µM
same,GI50,[16],4.61 µM
same,TGI,[16],> 100 µM
same,GI50,[17],7.04 µM
same,TGI,[17],47.2 µM
same,GI50,[18],12.5 µM
same,TGI,[18],> 100 µM
same,GI50,[19],11 µM
same,TGI,[19],54.4 µM
same,GI50,[20],11.2 µM
same,TGI,[20],76.2 µM
same,GI50,[21],9.82 µM
same,TGI,[21],> 100 µM
same,GI50,[22],4.11 µM
same,TGI,[22],37.6 µM
same,GI50,[23],4.55 µM
same,TGI,[23],27.8 µM
same,GI50,[24],4.01 µM
same,TGI,[24],16.2 µM
same,GI50,[25],12 µM
same,TGI,[25],> 100 µM
same,GI50,[26],9.11 µM
same,TGI,[26],66.9 µM
same,GI50,[27],16.5 µM
same,TGI,[27],> 100 µM
same,GI50,[28],5.98 µM
same,TGI,[28],64.9 µM
same,GI50,[57],16.1 µM
same,TGI,[57],85.6 µM
same,GI50,[29],2.49 µM
same,TGI,[29],8.77 µM
same,GI50,[30],2.84 µM
same,TGI,[30],14.9 µM
same,GI50,[31],18.3 µM
same,TGI,[31],61.4 µM
same,GI50,[32],7.21 µM
same,TGI,[32],35.4 µM
same,GI50,[33],3.77 µM
same,TGI,[33],27.7 µM
same,GI50,[34],4.6 µM
same,TGI,[34],17.2 µM
same,GI50,[35],9.09 µM
same,TGI,[35],22.3 µM
same,GI50,[36],5.96 µM
same,TGI,[36],47.3 µM
same,GI50,[37],16.6 µM
same,TGI,[37],> 100 µM
same,GI50,[38],11.3 µM
same,TGI,[38],25.1 µM
same,GI50,[39],2.67 µM
same,TGI,[39],11.9 µM
same,GI50,[40],3.97 µM
same,TGI,[40],25.5 µM
same,GI50,[41],6.64 µM
same,TGI,[41],26.2 µM
same,GI50,[42],6.33 µM
same,TGI,[42],39.8 µM
same,GI50,[43],7.22 µM
same,TGI,[43],> 100 µM
same,GI50,[58],7.11 µM
same,TGI,[58],39.4 µM
same,GI50,[44],10.7 µM
same,TGI,[44],70.3 µM
same,GI50,[45],21.2 µM
same,TGI,[45],> 100 µM
same,GI50,[46],10.4 µM
same,TGI,[46],> 100 µM
same,GI50,[47],3.47 µM
same,TGI,[47],> 100 µM
same,GI50,[48],15.5 µM
same,TGI,[48],63.4 µM
same,GI50,[49],4.57 µM
same,TGI,[49],36.2 µM
same,GI50,[50],4.93 µM
same,TGI,[50],32.1 µM
same,GI50,[51],4.68 µM
same,TGI,[51],> 100 µM
same,GI50,[52],3.91 µM
same,TGI,[52],> 100 µM
same,GI50,[53],12.3 µM
same,TGI,[53],45 µM
same,GI50,[54],5.09 µM
same,TGI,[54],53 µM
same,GI50,[55],2.78 µM
same,TGI,[55],8.68 µM
same,GI50,[56],10.3 µM
same,TGI,[56],37.6 µM

# From PubChem BioAssay (NCI)
